Assay [1] deals with benzodiazepine receptor. Nature of the assay: Benzodiazepine receptor binding (FRB), [3H]-flunitrazepam displacement. To be noted: 0.6 nM [3H] flunitrazepam, rat forebrain membrane preparations; read-out: FRB (IC50, inhibition of specific binding of [3H]-flunitrazepam). As to the method: The compounds of formula I are agents which interact with benzodiazepine receptors in the brain, and are useful as minor tranquillizers and for the treatment of obesity or cognitive impairment. Screening for benzodiazepine receptor binding (FRB) was carried out by the method described in published British Patent No. 2,128,989. The values given in Table II are expressed in terms of IC50 (nM).
The affinity of the compounds for the benzodiazepine receptor was assessed using the radioligand [^3 H]-flunitrazepam by modification of the original radioceptor binding method of SQUIRES et al [Nature, (1977), Vol. 266, p. 732].

In assay [2] the test system is Wistar rats. Put plainly: Induction of suprahyoid muscle twitching in urethane anaesthetised Wistar rats. The format is in vivo. To be noted: Rattus norvegicus, ip, urethane anaesthetised Wistar rats pretreated with nialamide; read-out: MED, increase of amplitude and/or rate of suprahyoid muscle twitch. An excerpt:
(§1) Benzodiazepine inverse agonists properties are indicated by the following tests.
(c) […] of suprahyoid muscle twitching in urethane anaesthetised Wistar rats [James & Gardner--Europ. J. Pharmacol. 113, 223-8 (1985)]. Wistar rats pretreated with nialamide are anaesthetised with urethane and the suprahyoid muscles exposed. These muscles spontaneously twitch and active compounds increase the amplitude and/or rate of twitch.

Assay [3] deals with DBA2 mice. Nature of the assay: Potentiation of threshold seizures induced by audiogenic stimulation in DBA2 mice. Format: in vivo. To be noted: Mus musculus, ip, 0.5 h, i.p., 30 mins pretest, read-out: ED50, potentiation of audiogenic threshold seizures to full tonic seizures. As for the experimental part:
as §1
(a) Potentiation of threshold seizures induced by audiogenic stimulation in DBA2 mice [Jensen et al--Life Sciences 33, 393-9 (1983)], DBA2 mice are subjected to audio stimulation. The threshold seizure characteristics (myoclonus, running) are potentiated by active compounds to full tonic seizures and ED50 is calculated.

For assay [4], the system named is CD1 mice. Nature of the assay: Potentiation of seizures induced by subcutaneous injection of leptazol to CD1 mice. Format: in vivo. Particulars: Mus musculus, ip, 0.5 h, i.p., 30 mins pretest, read-out: ED50, potentiation of leptazol-induced tonic seizures. As for the experimental part:
as §1
(b) Potentiation of seizures induced by subcutaneous injection of leptazol to CD1 mice.
A dose of leptazol is selected to give 10 to 20% tonic seizures in untreated CD1 mice. Active compounds increase the percentage of tonic seizures and the ED50 is calculated by the method of Lichfield and Wilcoxon (J. Pharmacol Exp. Ther. (1949) 96, 99).

pIC50: −log10 of the molar value.

What is called pIC50 is the negative decadic logarithm of the IC50, by convention in mol/L. One may read the ED50 as the midpoint of the dose-response relation.

Regarding `CCOC(=O)c1csc(-c2cn3c(C)c(CC)c(OC)nc3n2)n1` [Example 4, Ethyl 2-(6-ethyl-7-methoxy-5-methylimidazo[1,2-a]pyrimidin-2-yl)-thiazole-4-carboxylate], the pIC50 in assay [1] was 5.55.

Consider `CCc1c(OC)nc2nc(-c3nccs3)cn2c1C` [Example 10, 6-Ethyl-7-methoxy-5-methyl-2-(thiazol-2-yl)imidazo[1,2-a]pyrimidine], for which the pIC50 in assay [1] was 6.70. With `CCCc1c(OC)nc2nc(-c3nc(C)cs3)cn2c1C` [Example 9, 7-Methoxy-5-methyl-2-(4-methylthiazol-2-yl)-6-propylimidazo[1,2-a]pyrimidine], the pIC50 in assay [1] was 7.00. Take `CCc1c(SC)nc2nc(-c3nc(C)cs3)cn2c1C` [Example 5, 6-Ethyl-5-methyl-2-(4-methylthiazol-2-yl)-7-methylthioimidazo[1,2-a]pyrimidine]: the negative logarithm of the IC50 (pIC50) in assay [1] was 7.10. Turning to `CCc1c(OC)nc2nc(-c3nc(C(F)(F)F)cs3)cn2c1C` [Example 6, 6-Ethyl-7-methoxy-5-methyl-2-(4-trifluoromethylthiazol-2-yl)-imidazol[1,2-a]pyrimidine], in assay [1], the pIC50 was 5.70. `CCc1c(OC)nc2nc(-c3nc(C)cs3)cn2c1C` [Example 1, 6-Ethyl-7-methoxy-5-methyl-2-(4-methylthiazol-2-yl)-imidazo[1,2-a]pyrimidine]: in assay [2], the minimal effective dose is 10 mg/kg. Also, in assay [1], the pIC50 is 6.95. Moreover, the values for the ED50 in assay [3] and in assay [4] were 3 mg/kg and 50 mg/kg, respectively. `COc1nc2nc(-c3nc(C)cs3)cn2c2c1CCCC2` [Example 7, 5-Methoxy-2-(4-methylthiazol-2-yl)-6,7,8,9-tetrahydroimidazo[1,2-a]quinazoline]: in assay [1], the pIC50 is 7.66. On to `C=CCc1c(OC)nc2nc(-c3nc(C)cs3)cn2c1C` [Example 8, 6-Allyl-7-methoxy-5-methyl-2-(4-methylthiazol-2-yl)imidazo[1,2-a]pyrimidine], for which the pIC50 in assay [1] is 7.00. As for `CCc1csc(-c2cn3c(C)c(CC)c(OC)nc3n2)n1` [Example 2, 6-Ethyl-2-(4-ethylthiazol-2-yl)-7-methoxy-5-methylimidazo[1,2-a]pyrimidine], the pIC50 in assay [1] was 6.66.

On to `CCc1c(OC)nc2nc(-c3nc(C)c(C)s3)cn2c1C` [Example 3, 2-(4,5-Dimethylthiazol-2-yl)-6-ethyl-7-methoxy-5-methylimidazo[1,2-a]pyrimidine], for which the pIC50 in assay [1] is 5.60.

Source of the values: patent publication US4925846A, “2-thiazolyl-imidazo[1,2,-a]pyrimidines” (Roussel Uclaf, priority 1986, dated 1990).
